± gives the expanded uncertainty stated by the source.
Details: Vibrating tube method

FC(F)=C(F)C(F)(F)F [hexafluoropropene]
Details | mass density [kg/m3]
263.41 K, 162.7 kPa, Fluid (supercritical or subcritical phases) | 11.79 ± 0.04
263.41 K, 164.3 kPa, Fluid (supercritical or subcritical phases) | 11.92 ± 0.04
263.41 K, 165.5 kPa, Fluid (supercritical or subcritical phases) | 12.02 ± 0.04
263.41 K, 167 kPa, Fluid (supercritical or subcritical phases) | 12.14 ± 0.04
263.41 K, 168.6 kPa, Fluid (supercritical or subcritical phases) | 12.22 ± 0.04
263.41 K, 170.1 kPa, Fluid (supercritical or subcritical phases) | 12.35 ± 0.04
263.41 K, 171.8 kPa, Fluid (supercritical or subcritical phases) | 12.46 ± 0.04
263.41 K, 173.2 kPa, Fluid (supercritical or subcritical phases) | 12.64 ± 0.04
263.41 K, 174.8 kPa, Fluid (supercritical or subcritical phases) | 12.73 ± 0.04
263.41 K, 176.4 kPa, Fluid (supercritical or subcritical phases) | 12.82 ± 0.04
263.41 K, 177.9 kPa, Fluid (supercritical or subcritical phases) | 13 ± 0.04
263.41 K, 179.4 kPa, Fluid (supercritical or subcritical phases) | 13.09 ± 0.04
263.41 K, 180.9 kPa, Fluid (supercritical or subcritical phases) | 13.22 ± 0.04
263.41 K, 182.4 kPa, Fluid (supercritical or subcritical phases) | 13.34 ± 0.04
263.41 K, 183.9 kPa, Fluid (supercritical or subcritical phases) | 13.46 ± 0.04
263.41 K, 185.4 kPa, Fluid (supercritical or subcritical phases) | 13.58 ± 0.04
263.41 K, 186.9 kPa, Fluid (supercritical or subcritical phases) | 13.66 ± 0.04
263.41 K, 188.4 kPa, Fluid (supercritical or subcritical phases) | 13.77 ± 0.04
263.41 K, 189.9 kPa, Fluid (supercritical or subcritical phases) | 13.87 ± 0.04
263.41 K, 191.3 kPa, Fluid (supercritical or subcritical phases) | 14.01 ± 0.04
263.41 K, 192.8 kPa, Fluid (supercritical or subcritical phases) | 14.11 ± 0.04
263.41 K, 194.2 kPa, Fluid (supercritical or subcritical phases) | 14.27 ± 0.04
263.41 K, 195.7 kPa, Fluid (supercritical or subcritical phases) | 14.37 ± 0.04
263.41 K, 197.1 kPa, Fluid (supercritical or subcritical phases) | 14.48 ± 0.04
263.41 K, 198.5 kPa, Fluid (supercritical or subcritical phases) | 14.63 ± 0.04
263.41 K, 199.9 kPa, Fluid (supercritical or subcritical phases) | 14.76 ± 0.04
263.41 K, 201.3 kPa, Fluid (supercritical or subcritical phases) | 14.81 ± 0.04
263.41 K, 202.7 kPa, Fluid (supercritical or subcritical phases) | 14.96 ± 0.04
263.41 K, 204.1 kPa, Fluid (supercritical or subcritical phases) | 15.01 ± 0.04
263.41 K, 205.5 kPa, Fluid (supercritical or subcritical phases) | 15.14 ± 0.04
263.41 K, 206.9 kPa, Fluid (supercritical or subcritical phases) | 15.26 ± 0.04
263.41 K, 208.3 kPa, Fluid (supercritical or subcritical phases) | 15.38 ± 0.04
263.41 K, 209.6 kPa, Fluid (supercritical or subcritical phases) | 15.49 ± 0.04
263.41 K, 211 kPa, Fluid (supercritical or subcritical phases) | 15.6 ± 0.04
263.41 K, 212.3 kPa, Fluid (supercritical or subcritical phases) | 15.71 ± 0.04
263.41 K, 213.6 kPa, Fluid (supercritical or subcritical phases) | 15.8 ± 0.04
263.41 K, 214.9 kPa, Fluid (supercritical or subcritical phases) | 15.93 ± 0.04
263.41 K, 216.3 kPa, Fluid (supercritical or subcritical phases) | 16.03 ± 0.04
263.41 K, 217.6 kPa, Fluid (supercritical or subcritical phases) | 16.16 ± 0.04
263.41 K, 218.8 kPa, Fluid (supercritical or subcritical phases) | 16.24 ± 0.04
263.41 K, 220.2 kPa, Fluid (supercritical or subcritical phases) | 16.31 ± 0.04
263.41 K, 220.6 kPa, Fluid (supercritical or subcritical phases) | 16.37 ± 0.04
263.41 K, 221.1 kPa, Fluid (supercritical or subcritical phases) | 16.43 ± 0.04
263.41 K, 221.5 kPa, Fluid (supercritical or subcritical phases) | 16.47 ± 0.04
263.41 K, 222 kPa, Fluid (supercritical or subcritical phases) | 16.48 ± 0.04
263.41 K, 222.4 kPa, Fluid (supercritical or subcritical phases) | 16.53 ± 0.04
263.41 K, 223.2 kPa, Fluid (supercritical or subcritical phases) | 16.59 ± 0.04
263.41 K, 223.6 kPa, Fluid (supercritical or subcritical phases) | 16.63 ± 0.04
263.41 K, 224 kPa, Fluid (supercritical or subcritical phases) | 16.66 ± 0.04
263.41 K, 224.4 kPa, Fluid (supercritical or subcritical phases) | 16.7 ± 0.04
263.41 K, 225.4 kPa, Fluid (supercritical or subcritical phases) | 16.76 ± 0.04
263.41 K, 226.2 kPa, Fluid (supercritical or subcritical phases) | 16.85 ± 0.04
263.41 K, 226.6 kPa, Fluid (supercritical or subcritical phases) | 16.88 ± 0.04
263.41 K, 227 kPa, Fluid (supercritical or subcritical phases) | 16.94 ± 0.04
263.41 K, 227.9 kPa, Fluid (supercritical or subcritical phases) | 16.98 ± 0.04
263.41 K, 228.6 kPa, Fluid (supercritical or subcritical phases) | 17.03 ± 0.04
263.41 K, 229 kPa, Fluid (supercritical or subcritical phases) | 17.07 ± 0.04
263.41 K, 229.9 kPa, Fluid (supercritical or subcritical phases) | 17.2 ± 0.04
263.41 K, 230.7 kPa, Fluid (supercritical or subcritical phases) | 17.24 ± 0.04
263.41 K, 231.4 kPa, Fluid (supercritical or subcritical phases) | 17.29 ± 0.04
263.41 K, 231.9 kPa, Fluid (supercritical or subcritical phases) | 17.35 ± 0.04
263.41 K, 232.6 kPa, Fluid (supercritical or subcritical phases) | 17.43 ± 0.04
263.41 K, 233 kPa, Fluid (supercritical or subcritical phases) | 17.48 ± 0.04
263.41 K, 233.4 kPa, Fluid (supercritical or subcritical phases) | 17.55 ± 0.04
263.41 K, 234.2 kPa, Fluid (supercritical or subcritical phases) | 17.65 ± 0.04
263.41 K, 234.9 kPa, Fluid (supercritical or subcritical phases) | 17.92 ± 0.04
263.41 K, 235.5 kPa, Fluid (supercritical or subcritical phases) | 18.45 ± 0.04
263.41 K, 236 kPa, Fluid (supercritical or subcritical phases) | 19 ± 0.05
263.49 K, 230.2 kPa, Liquid | 1462.58 ± 1.5
263.49 K, 230.4 kPa, Liquid | 1462.56 ± 1.5
263.49 K, 231 kPa, Liquid | 1462.62 ± 1.5
263.49 K, 231.9 kPa, Liquid | 1462.66 ± 1.5
263.49 K, 232.1 kPa, Liquid | 1462.66 ± 1.5
263.49 K, 235.3 kPa, Liquid | 1462.67 ± 1.5
263.49 K, 242.7 kPa, Liquid | 1462.66 ± 1.5
263.49 K, 244.5 kPa, Liquid | 1462.72 ± 1.5
263.49 K, 250.6 kPa, Liquid | 1462.76 ± 1.5
263.49 K, 257.4 kPa, Liquid | 1462.73 ± 1.5
263.49 K, 258.3 kPa, Liquid | 1462.79 ± 1.5
263.49 K, 263.2 kPa, Liquid | 1462.89 ± 1.5
263.49 K, 273.9 kPa, Liquid | 1462.91 ± 1.5
263.49 K, 279.5 kPa, Liquid | 1462.96 ± 1.5
263.49 K, 288.7 kPa, Liquid | 1462.98 ± 1.5
263.49 K, 322.8 kPa, Liquid | 1463.12 ± 1.5
263.49 K, 327.2 kPa, Liquid | 1463.13 ± 1.5
263.49 K, 333.9 kPa, Liquid | 1463.18 ± 1.5
263.49 K, 337.8 kPa, Liquid | 1463.15 ± 1.5
263.49 K, 341.2 kPa, Liquid | 1463.16 ± 1.5
263.49 K, 345.9 kPa, Liquid | 1463.25 ± 1.5
263.49 K, 354.4 kPa, Liquid | 1463.25 ± 1.5
263.49 K, 361.4 kPa, Liquid | 1463.34 ± 1.5
263.49 K, 370.3 kPa, Liquid | 1463.38 ± 1.5
263.49 K, 388 kPa, Liquid | 1463.45 ± 1.5
263.49 K, 390.4 kPa, Liquid | 1463.48 ± 1.5
263.49 K, 401.9 kPa, Liquid | 1463.54 ± 1.5
263.49 K, 413.3 kPa, Liquid | 1463.57 ± 1.5
263.49 K, 431.1 kPa, Liquid | 1463.65 ± 1.5
263.49 K, 433.8 kPa, Liquid | 1463.67 ± 1.5
263.49 K, 447.7 kPa, Liquid | 1463.79 ± 1.5
263.49 K, 467.1 kPa, Liquid | 1463.9 ± 1.5
263.49 K, 484.1 kPa, Liquid | 1463.94 ± 1.5
263.49 K, 491.3 kPa, Liquid | 1463.96 ± 1.5
263.49 K, 502.2 kPa, Liquid | 1464.1 ± 1.5
263.49 K, 506.6 kPa, Liquid | 1464.15 ± 1.5
263.49 K, 518.2 kPa, Liquid | 1464.18 ± 1.5
263.49 K, 527.6 kPa, Liquid | 1464.19 ± 1.5
263.49 K, 529.9 kPa, Liquid | 1464.3 ± 1.5
263.49 K, 550.9 kPa, Liquid | 1464.3 ± 1.5
263.49 K, 554.1 kPa, Liquid | 1464.39 ± 1.5
263.49 K, 574.4 kPa, Liquid | 1464.38 ± 1.5
263.49 K, 584.9 kPa, Liquid | 1464.43 ± 1.5
263.49 K, 596.2 kPa, Liquid | 1464.57 ± 1.5
263.49 K, 625.2 kPa, Liquid | 1464.59 ± 1.5
263.49 K, 652.6 kPa, Liquid | 1464.81 ± 1.5
263.49 K, 673 kPa, Liquid | 1464.96 ± 1.5
263.49 K, 705.5 kPa, Liquid | 1465.02 ± 1.5
263.49 K, 728.3 kPa, Liquid | 1465.2 ± 1.5
263.49 K, 751.2 kPa, Liquid | 1465.25 ± 1.5
263.49 K, 772.1 kPa, Liquid | 1465.47 ± 1.5
263.49 K, 792.6 kPa, Liquid | 1465.54 ± 1.5
263.49 K, 813.9 kPa, Liquid | 1465.54 ± 1.5
263.49 K, 853.1 kPa, Liquid | 1465.89 ± 1.5
263.49 K, 888.3 kPa, Liquid | 1465.94 ± 1.5
263.49 K, 912.8 kPa, Liquid | 1466.07 ± 1.5
263.49 K, 939.3 kPa, Liquid | 1466.24 ± 1.5
263.49 K, 962.1 kPa, Liquid | 1466.39 ± 1.5
263.49 K, 982.9 kPa, Liquid | 1466.54 ± 1.5
263.49 K, 1031 kPa, Liquid | 1466.76 ± 1.5
263.49 K, 1064.1 kPa, Liquid | 1466.9 ± 1.5
263.49 K, 1098.2 kPa, Liquid | 1467.05 ± 1.5
263.49 K, 1132.8 kPa, Liquid | 1467.28 ± 1.5
263.49 K, 1165.8 kPa, Liquid | 1467.41 ± 1.5
263.49 K, 1201.1 kPa, Liquid | 1467.57 ± 1.5
263.49 K, 1250.1 kPa, Liquid | 1467.92 ± 1.5
